Columns and labels:
Format in all cases: in vivo, human
[1] = Three-month pioglitazone administration to type II diabetes patients: body mass index and blood pressure; conditions: type II diabetes patients n=10, 30 mg/day orally, mean ± S.D.
From the text: (§1) 10 male patients with type II diabetes (ages: 40 to 66, 57.7±7.4) either being only under diet therapy (n=7) or being under diet therapy and on medication of sulfonylurea (n=3) were subjected to inspection regarding the following parameters before and after a three-month administration of a thiazolidine derivative, pioglitazone. Body weights, blood glucose levels, and blood pressure levels of those patients and treatments for them were at constant levels for at least 3 months before the examination. The sulfonylurea doses for 3 patients were at constant levels during that period. Pioglitazone was administered to all 10 patients after breakfast every day (orally, 30 mg/day).
(§2) The systolic blood pressure (SBP) and the diastolic blood pressure (DBP) were measured twice in a sitting position after an at least 5-minute recess. Body heights, weights, and levels of fasting plasma glucose (FPG), HbA1C, serum insulin, adiponectin, total cholesterol (TC), triglyceride (TG), HDL-cholesterol, LDL-cholesterol, and uric acid were measured in the morning after an overnight fast. Levels of plasma glucose, lipids, and uric acid were measured by a common automated measuring technique. The serum concentration of insulin was measured using a commercially available kit, EIA (Tosoh, Tokyo), as already described (Kawai, T. et al., Metabolism 48: 1102-1107, 1999; Hirose, H. et al., Clin. Sci. (Colch) 94: 633-636, 1998; Hirose, H. et al., J. Hypertens. 16: 2007-2012, 1998; Hirose, H. et al., Clin. Sci. (Colch) 100: 145-150, 2001). The insulin resistance index was evaluated by the Homeostasis model assessment (HOMA-IR) (Matthews, D. R. et al., Diabetologia 28: 412-419, 1985; Rudenski, A. S. et al., Metabolism 40: 908-917, 1991).

[2] = Three-month pioglitazone administration to type II diabetes patients: fasting glucose, HbA1c, lipids, uric acid
From the text: as §1, §2

[3] = Assessment of body fat distribution by CT scan before and after three-month pioglitazone; conditions: type II diabetes patients n=10, 30 mg/day orally, mean ± S.D.
Description: The patients who had been also employed in Example 1 were subjected to the assessment of body fat distribution before and after the three-month administration of pioglitazone. Distributions of subcutaneous fat and visceral fat were determined by assessing the region of a Hounsfield unit of −150 to −50 by a method modified from the computerized tomography (CT) scan at the level of the navel by Tokunaga et al. (Tokunaga, K. et al., Int. J. Obes. 7: 437-445, 1983). CT images at the baseline and after a three-month treatment were taken in accordance with the same protocols that had been previously reported by the present inventors (Kawai, T. et al., Metabolism, 48: 1102-1107, 1999). The V/S ratio was calculated by dividing the visceral fat area (VFA) by the subcutaneous fat area (SFA).

[4] = Three-month pioglitazone administration to type II diabetes patients: serum insulin (EIA) and HOMA-IR
From the text: as §1, §2

adiponectin (GBP28) = assay: Serum GBP28 (adiponectin) by ELISA before and after three-month pioglitazone
Description: The patients who had been employed in Example 1 were also subjected to an assay of the blood concentration of GBP28 before and after the three-month administration of pioglitazone.
The anti-human GBP28 monoclonal antibody was prepared in the following manner. First, a solution of GBP28 (about 50 μg) isolated and purified from human serum was micellized with a complete adjuvant, and the resultant was administered to a mouse intraperitoneally. Two weeks later, the mouse was subjected to booster, the spleen was extirpated 3 days thereafter, and the B-cell was collected. The B-cell and the myeloma cell were allowed to fuse with each other to prepare hybridomas, and a hybridoma of interest was administered to a mouse intraperitoneally. Thereafter (20 days later), ascites was processed with DEAE-Sepharose Fast Flow, and the monoclonal antibody of interest was obtained.
GBP28 was assayed by ELISA in the following manner. A standard GBP28 sample, a 441-fold-diluted unknown sample, and a control sample (100 μl each) were added to a 96-well microtiter plate coated with the mouse anti-GBP28 monoclonal antibody. The plate was incubated for 60 minutes, the well was washed, and incubation was carried out for additional 30 minutes with the horseradish peroxidase-labeled mouse anti-GBP28 monoclonal antibody. The plate was washed again, and incubation was carried out for 30 minutes with a tetramethylbenzidine reagent. Subsequently, 100 μl of aqueous solution of 0.36N sulfuric acid was added to each well to terminate the reaction, and the absorbance at 450 nm was assayed. Intra- and interassay coefficients were 4.8% to 4.9% and 3.3% to 6.8%, respectively.

[5] = type II diabetes patients n=10, 30 mg/day orally, 3 months, mean ± S.D.
[6] = type II diabetes patients n=10, 30 mg/day orally, logarithmic values, mean ± S.D.
[7] = type II diabetes patients n=10, 30 mg/day orally, mean ± S.D.
[8] = type II diabetes patients, three-month administration, given without sign

CCc1ccc(CCOc2ccc(CC3SC(=O)NC3=O)cc2)nc1 (stereo not drawn) [pioglitazone]
Body Mass Index, after the three-month trace ([1]; 3 months): 27.0 ± 3.5 kg/m^2
Body Mass Index, rate of change in 3 months [1]: 2.1 ± 2.2
Body mass index at diastolic blood pressure, rate of change in 3 months [1]: −6.3 ± 6.9
Body mass index at systolic blood pressure, rate of change in 3 months [1]: −7.0 ± 4.9
Fasting blood glucose, after the three-month trace [2, 5]: 7.0 ± 1.0^ mmol/l
HDL cholesterol, after the three-month trace [2, 5]: 52.1 ± 7.3 mg/dL
HbA1c, after the three-month trace [2, 5]: 6.1 ± 0.6^ %
LDL cholesterol, after the three-month trace [2, 5]: 138 ± 24 mg/dL
Total cholesterol, after the three-month trace [2, 5]: 218 ± 35 mg/dL
Triglyceride (log), after the three-month trace [2, 5]: 127 ± 2 mg/dl
Uric acid, after the three-month trace [2, 5]: 5.6 ± 1.3^ mg/dl
Triglyceride (log), rate of change in 3 months [2, 6]: −1.0 ± 6.3
Fasting blood glucose, rate of change in 3 months [2, 7]: −18.2 ± 9.3
HDL cholesterol, rate of change in 3 months [2, 7]: 2.0 ± 11.2
HbA1c, rate of change in 3 months [2, 7]: −9.0 ± 8.8
LDL cholesterol, rate of change in 3 months [2, 7]: 12.3 ± 12.8
Total cholesterol, rate of change in 3 months [2, 7]: 4.8 ± 10.9
Uric acid, rate of change in 3 months [2, 7]: −5.0 ± 9.5
Rate of change of HbA1C over three months [2, 8]: 9.0%
Rate of change of blood glucose over three months [2, 8]: 18.2%
Subcutaneous Fat Area, after the three-month trace ([3]; 3 months, CT at navel level): 179 ± 81 cm^2
Visceral Fat Area, after the three-month trace ([3]; 3 months, CT at navel level): 180 ± 46 cm^2
V/S ratio, after the three-month trace ([3]; 3 months, VFA divided by SFA): 1.1 ± 0.3
Subcutaneous Fat Area, rate of changes in 3 months [3]: 16.1 ± 18.7
V/S ratio, rate of changes in 3 months [3]: −4.0 ± 11.2
Visceral Fat Area, rate of changes in 3 months [3]: 11.3 ± 21.3
HOMA-IR (log), after the three-month trace [4, 5]: 1.6 ± 1.3^
Serum insulin (log), after the three-month trace [4, 5]: 30 ± 8 pmmol/l
HOMA-IR (log), rate of change in 3 months [4, 6]: −62.6 ± 22.6
Serum insulin (log), rate of change in 3 months [4, 6]: −23.7 ± 13.5
Rate of change of HOMA-IR over three months [4, 8]: 62.6%
Rate of change of serum insulin over three months [4, 8]: 23.7%
Elevation in serum adiponectin level, times higher than the baselines on average (adiponectin (GBP28); 10 type II diabetes patients, three-month administration): 3 times
GBP28 (log), after the three-month trace (adiponectin (GBP28); type II diabetes patients n=10, 30 mg/day orally, 3 months, serum, mean ± S.D.): 14.4 ± 2.1 μg/l
GBP28 (log), rate of change in 3 months (adiponectin (GBP28); [6]): 80.9 ± 58^
Rate of change of concentration of GBP28 over three months (adiponectin (GBP28); type II diabetes patients, three-month administration): 80.9%
